± gives the expanded uncertainty stated by the source.
Conditions: 101 kPa, Liquid mixture 1, Pendant Drop method

CCCC[N+]1(C)CCCC1.O=S(=O)([N-]S(=O)(=O)C(F)(F)F)C(F)(F)F + CCCCO
Conditions | interfacial tension [mN/m]
293.15 K | 0.666 ± 0.2
295.65 K | 0.576 ± 0.2
298.15 K | 0.443 ± 0.2
300.65 K | 0.368 ± 0.2
303.15 K | 0.276 ± 0.2
305.65 K | 0.163 ± 0.2
